In patent US20240279218A1 (Hoffmann-La Roche Inc., priority 2016, published 2024):
Where two headings read alike, the source gives them in different places.

Tests used:
h-GABA-A α5β3γ2 [1] = target: T1, h-GABA-A α5β3γ2 (Homo sapiens (Human), UniProt P18507+P31644); experiment: Two-electrode voltage clamp electrophysiology in Xenopus oocytes expressing GABAA receptors, modulation of GABA EC20 current; type: cell-based
Method in brief: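 Values are % modulation of an EC20 GABA response, derived point by point from the ratio of compound-exposed versus control current traces (extremum taken, 100×(fold−1)). Recordings used oocytes injected with human α5, β3, γ2 mRNA, clamped at −80 mV at room temperature, at least 3 oocytes each.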

h-GABA-A α5β3γ2 [2] = target: T1, h-GABA-A α5β3γ2; experiment: [3H]flumazenil competition binding assay, membranes of HEK293 cells expressing human GABAA receptors
Method in brief: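 Displacement of [3H]flumazenil from membranes of HEK293 cells transiently expressing human α5β3γ2 receptors, in Krebs-tris buffer pH 7.5. Incubation to equilibrium, 1 h at 4° C., then filtration and scintillation counting. Ki is the mean of two determinations.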

[3] = % modulation of GABA EC20 = 100*(Fold increase−1), Xenopus oocytes
[4] = Xenopus oocytes, GABA EC20, test compound at approx. 30 fold its Ki
[5] = displacement of [3H]flumazenil 0.5 nM, HEK293 cells expressing human receptors, mean of two determinations, read-out: Ki h-GABA-A α5β3γ2
[6] = reference compounds, % modulation of GABA EC20
[7] = reference compounds, GABAA α5β3γ2 overexpressing oocytes, GABA EC20
[8] = reference compounds, GABAA receptor α5β3γ2, read-out: Ki α5-human

SMILES | Efficacy (GABA) % (h-GABA-A α5β3γ2 [1]; [3]) | Fold increase h-GABA-A α5β3γ2 oocyte (h-GABA-A α5β3γ2 [1]; [4]) | Ki (h-GABA-A α5β3γ2 [2]; [5]) | Efficacy (GABA) % (h-GABA-A α5β3γ2 [1]; [6]) | Fold increase h-GABA-A α5β3γ2 oocyte (h-GABA-A α5β3γ2 [1]; [7]) | Ki (h-GABA-A α5β3γ2 [2]; [8])
Cc1ccc(-c2noc(C)c2COc2ccc(C(=O)N[C@@H]3CCS(=O)(=O)C3)cn2)cn1 [Example 20, N-((3R)-1,1-dioxothiolan-3-yl)-6-((5-methyl-3-(6-methylpyridin-3-yl)-1,2-oxazol-4-yl)methoxy)pyridine-3-carboxamide] | 95% | 1.95 | 11.8 nM | – | – | –
Cc1ccc(-c2noc(C)c2COc2cc(C)c(C(=O)NC3CCOCC3)nn2)cn1 [Example 62, 4-methyl-6-((5-methyl-3-(6-methylpyridin-3-yl)isoxazol-4-yl)methoxy)-N-(tetrahydropyran-4-yl)pyridazine-3-carboxamide] | 42% | 1.42 | 20.8 nM | – | – | –
Cc1ccc(-c2noc(C)c2COc2ccc(C(=O)N[C@H]3CC[C@@](C)(O)CC3)nn2)cn1 [Example 148, N-((1s,4s)-4-hydroxy-4-methylcyclohexyl)-6-((5-methyl-3-(6-methylpyridin-3-yl)isoxazol-4-yl)methoxy)pyridazine-3-carboxamide] | 77% | 1.77 | 13.8 nM | – | – | –
CCc1onc(-c2ccc(C)nc2)c1COc1ccc(C(=O)NC2CCS(=O)(=O)CC2)cn1 [Example 120, N-(1,1-dioxidotetrahydro-2H-thiopyran-4-yl)-6-((5-ethyl-3-(6-methylpyridin-3-yl)isoxazol-4-yl)methoxy)pyridine-3-carboxamide] | 160% | 2.6 | 52.1 nM | – | – | –
Cc1ccc(-c2noc(C)c2COc2ccc(C(=O)NC3CC3)nn2)cn1 [Example 26, N-cyclopropyl-6-((5-methyl-3-(6-methylpyridin-3-yl)isoxazol-4-yl)methoxy)pyridazine-3-carboxamide] | 80% | 1.8 | 5.2 nM | – | – | –
Cc1ccc(-c2noc(C(F)F)c2COc2ccc(C(=O)NC3CCOCC3)cn2)cn1 [Example 126, 6-((5-(difluoromethyl)-3-(6-methyl-3-pyridyl)isoxazol-4-yl)methoxy)-N-tetrahydropyran-4-yl-pyridine-3-carboxamide] | 49% | 1.49 | 49.8 nM | – | – | –
Cc1onc(-c2ccccn2)c1COc1ccc(C(=O)NC2CCOCC2)cn1 [RO-272, reference compound] | – | – | – | −32% | 0.68 | 1 nM
CCO[C@H]1C[C@H](NC(=O)c2ccc(OCc3c(-c4ccc(C)nc4)noc3C)nn2)C1 [Example 172, trans-N-(3-ethoxycyclobutyl)-6-((5-methyl-3-(6-methylpyridin-3-yl)isoxazol-4-yl)methoxy)pyridazine-3-carboxamide] | 65% | 1.65 | 8.8 nM | – | – | –
Cc1ccc(-c2noc(C)c2COc2ccc(C(=O)N3CC(C)(O)C3)nn2)cn1 [Example 56, (3-hydroxy-3-methylazetidin-1-yl)(6-((5-methyl-3-(6-methylpyridin-3-yl)isoxazol-4-yl)methoxy)pyridazin-3-yl)methanone] | 64% | 1.64 | 7.9 nM | – | – | –
Cc1ccc(-c2noc(C)c2COc2cnc(C(=O)N[C@@H]3CCCOC3)cn2)cn1 [Example 98, (R)-5-((5-methyl-3-(6-methylpyridin-3-yl)isoxazol-4-yl)methoxy)-N-(tetrahydropyran-3-yl)pyrazine-2-carboxamide] | 76% | 1.76 | 62.2 nM | – | – | –
Cc1ccc(-c2noc(C)c2COc2ccc(C(=O)NC3CCS(=O)(=O)C3)cn2)cn1 (stereo not drawn) [Example 16, N-(1,1-dioxothiolan-3-yl)-6-((5-methyl-3-(6-methyl-3-pyridyl)isoxazol-4-yl)methoxy)pyridine-3-carboxamide] | 85% | 1.85 | 19.2 nM | – | – | –
Cc1ccc(-c2noc(C)c2COc2cc3c(cn2)C(=O)N(C2CCC(F)(F)CC2)C3)cn1 [Example 96, 2-(4,4-difluorocyclohexyl)-6-((5-methyl-3-(6-methylpyridin-3-yl)isoxazol-4-yl)methoxy)-1H-pyrrolo[3,4-c]pyridin-3(2H)-one] | 88% | 1.88 | 7.2 nM | – | – | –
Cc1ccc(-c2noc(C)c2COc2ccc(C(=O)N[C@@H]3CCOC[C@@H]3C)nn2)cn1 [Example 52, 6-((5-methyl-3-(6-methylpyridin-3-yl)isoxazol-4-yl)methoxy)-N-((3R,4R)-3-methyltetrahydropyran-4-yl)pyridazine-3-carboxamide] | 67% | 1.67 | 28.9 nM | – | – | –
Cc1ccc(-c2noc(C3CC3)c2COc2ccc(C(=O)NC3CCOCC3)nn2)cn1 [Example 183, 6-((5-cyclopropyl-3-(6-methylpyridin-3-yl)isoxazol-4-yl)methoxy)-N-(tetrahydropyran-4-yl)pyridazine-3-carboxamide] | 213% | 3.13 | 56.7 nM | – | – | –
Cc1ccc(-c2noc(C)c2COc2ccc(C(=O)NCC3(O)COC3)nn2)cn1 [Example 51, N-((3-hydroxyoxetan-3-yl)methyl)-6-((5-methyl-3-(6-methylpyridin-3-yl)isoxazol-4-yl)methoxy)pyridazine-3-carboxamide] | 57% | 1.57 | 10.8 nM | – | – | –
CCC[C@@H](CO)NC(=O)c1cnc(OCc2c(-c3ccc(C)nc3)noc2C)cn1 [Example 14, N-((1S)-1-(hydroxymethyl)butyl)-5-((5-methyl-3-(6-methyl-3-pyridyl)isoxazol-4-yl)methoxy)pyrazine-2-carboxamide] | 160% | 2.6 | 74.5 nM | – | – | –
Cc1ccc(-c2noc(C)c2COc2ccc(C(=O)NC3(C#N)CC3)nn2)cn1 [Example 69, N-(1-cyanocyclopropyl)-6-((5-methyl-3-(6-methylpyridin-3-yl)isoxazol-4-yl)methoxy)pyridazine-3-carboxamide] | 86% | 1.86 | 7.7 nM | – | – | –
Cc1ccc(-c2noc(C)c2COc2ccc(C(=O)N3CC4(C3)CC(F)(F)C4)nn2)cn1 [Example 155, (6,6-difluoro-2-azaspiro[3.3]heptan-2-yl)(6-((5-methyl-3-(6-methylpyridin-3-yl)isoxazol-4-yl)methoxy)pyridazin-3-yl)methanone] | 46% | 1.46 | 15.4 nM | – | – | –
CO[C@H]1CC[C@@H](NC(=O)c2ccc(OCc3c(-c4ccc(C)nc4)noc3C)nn2)CC1 [Example 158, cis-N-(4-methoxycyclohexyl)-6-((5-methyl-3-(6-methylpyridin-3-yl)isoxazol-4-yl)methoxy)pyridazine-3-carboxamide] | 79% | 1.79 | 18.2 nM | – | – | –
Cc1onc(-c2cccnc2)c1COc1ccc(C(=O)NC2CCOCC2)nn1 [RE-A, 6-((5-methyl-3-(3-pyridyl)isoxazol-4-yl)methoxy)-N-tetrahydropyran-4-yl-pyridazine-3-carboxamide, reference compound] | – | – | – | −3% | 0.97 | 65 nM
CCOC(=O)C1(NC(=O)c2ccc(OCc3c(-c4ccc(C)nc4)noc3C)nn2)CC1 [Example 68, ethyl 1-(6-((5-methyl-3-(6-methylpyridin-3-yl)isoxazol-4-yl)methoxy)pyridazine-3-carboxamido)cyclopropanecarboxylate] | 72% | 1.72 | 56.2 nM | – | – | –
Cc1ccc(-c2noc(C)c2COc2ccc(C(=O)N3CC4(COC4)C3)nn2)cn1 [Example 61, (6-((5-methyl-3-(6-methylpyridin-3-yl)isoxazol-4-yl)methoxy)pyridazin-3-yl)(2-oxa-6-azaspiro[3.3]heptan-6-yl)methanone] | 58% | 1.58 | 7.1 nM | – | – | –
Cc1ccc(-c2noc(C)c2COc2cnc(C(=O)NCC3CC3)cn2)cn1 [Example 95, N-(cyclopropylmethyl)-5-((5-methyl-3-(6-methylpyridin-3-yl)isoxazol-4-yl)methoxy)pyrazine-2-carboxamide] | 67% | 1.67 | 13.4 nM | – | – | –
